According to US6495517B2, “Cyclooxygenase inhibitor” (A. Natterman & Cie. GmbH, priority 1998, dated 2002):

Legend:
[1] = LD50 determination, intraperitoneal administration; conditions: mouse, in vivo, ip
rat = experiment: LD50 determination in rats; type: in vivo
[2] = target: T1, Cyclooxygenase 2 derived from sheep placentae (Ovis aries, UniProt P79208); experiment: In vitro inhibition of cyclooxygenase 2 activity (synthesis of prostaglandin H2 from 14C-arachidonic acid, TLC autoradiography); conditions: sheep placenta COX-2, 35° C., 30 min
T1 sequence (P79208 17-603): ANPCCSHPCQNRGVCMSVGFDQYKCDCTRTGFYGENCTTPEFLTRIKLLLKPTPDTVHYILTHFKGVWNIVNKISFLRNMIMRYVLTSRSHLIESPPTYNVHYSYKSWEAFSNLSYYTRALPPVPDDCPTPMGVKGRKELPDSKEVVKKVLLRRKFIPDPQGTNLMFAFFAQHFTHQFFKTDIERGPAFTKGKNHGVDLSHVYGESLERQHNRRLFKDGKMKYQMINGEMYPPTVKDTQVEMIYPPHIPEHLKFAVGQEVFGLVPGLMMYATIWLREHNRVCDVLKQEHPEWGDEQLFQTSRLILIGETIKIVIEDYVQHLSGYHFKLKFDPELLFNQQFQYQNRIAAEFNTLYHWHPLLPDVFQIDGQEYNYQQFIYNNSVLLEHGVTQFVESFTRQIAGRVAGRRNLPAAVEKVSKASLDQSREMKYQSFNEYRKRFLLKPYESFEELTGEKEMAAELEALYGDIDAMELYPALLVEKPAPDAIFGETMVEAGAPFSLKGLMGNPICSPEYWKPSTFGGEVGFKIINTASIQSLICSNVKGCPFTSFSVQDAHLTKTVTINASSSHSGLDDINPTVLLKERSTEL
Experimental: Arachidonic acid was used as the substrate in the present example. Ten μl of arachidonic acid was dissolved in methanol (10 mg/ml) and mixed with 5 μCi of ^14C-labeled arachidonic acid; and to obtain a dried substrate, the solvent was evaporated by blowing with nitrogen gas at room temperature. Subsequently, the substrate was dissolved in 50 μl of dimethylsulfoxide (DMSO), and 10 ml of 5 mM Tris-HCl buffer (pH 8.0) containing 2 mM phenol was added to the substrate solution, followed by sonication to completely dissolve the sample. Separately, test compounds having final concentrations of 0.1-10 μM were prepared. […] Five μl of each compound solution was added to 5 μl of the above substrate solution, followed by mixing. The samples were then preincubated at 35° C. for about 10 min. Cyclooxygenase 2 derived from sheep placentae (Cayman Chem.) had been separately diluted 10-fold with the above buffer, and 20 μl of the enzyme solution was added to each of the above samples. The enzyme reaction was carried out at 35° C. for 30 min, and stopped by adding 0.5 ml of ice-cold ethanol to each sample. Then, to 0.9 ml of each sample, 2.0 ml of 2% acetic acid solution was added. Arachidonic acid and its metabolite prostaglandin H2 were then extracted with 3.0 ml of ethyl acetate. From each extracted sample, a 2.0-ml portion was transferred to a new test tube. The solvent was distilled off from the transferred samples under reduced pressure, and the samples were dried in vacuo. Then each dried sample was dissolved in 100 μl of methanol, out of which 5 μl was subjected to analysis by high resolution thin layer chromatography. Arachidonic acid and its metabolite prostaglandin H2 were separated by chromatography with a developing solution of chloroform, ethyl acetate, methanol, acetic acid and water in proportions of 70:30:8:1:0.5 (v/v). The chromatography plate, together with a ^14C-standard substance, was exposed to an imaging plate (Fuji Film), and was analyzed with Fuji Film Bio-Image analyzer BAS-2000 to obtain an autoradiogram. By scanning of spots corresponding to the standard radioactive samples, a standard dose-response curve was plotted. Then, by use of the standard curve, each scanned value of arachidonic acid spots and prostaglandin H2 spots was converted to a amount of radiation. Indomethacin was purchased from Sigma, and PZ25 was a gift from Rhone-Poulenc Rorer.

[3] = LD50 determination, oral administration; conditions: mouse, in vivo

| Compound | LD50 [1] | LD50 (rat) | Generated Amount of Prostaglandin H2 (%) ([2]; dose of compound 1 μM) | Generated Amount of Prostaglandin H2 (%) ([2]; dose of compound 3 μM) | Generated Amount of Prostaglandin H2 (%) ([2]; dose of compound 10 μM) | Generated Amount of Prostaglandin H2 (%) ([2]; dose of compound 30 μM) | LD50 [3] |
| --- | --- | --- | --- | --- | --- | --- | --- |
| O=c1c2ccccc2[se]n1-c1ccccc1 [Compound A, 2-phenyl-1,2-benzisoselenazol-3(2H)-one] | 740 mg/kg | large doses were required | 91.8 ± 14.3% | 78.6 ± 5.28% | 46.88 ± 6.49 % | 20.10 ± 1.95 % | ≥ 6810 mg/kg |
| O=c1c2ccccc2sn1-c1ccccc1 [PZ25, 2-phenyl-1,2-benzisothiazol-3(2H)-one, reference compound] | – | – | – | 103.25 ± 9.29% | 103.53 ± 11.2% | 93.9 ± 9.06% | – |
